According to ChEMBL document CHEMBL1201862, “PubChem BioAssay data set” (2004):
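Values below derive from 48-hour exposures of cells grown in 96-well plates, with endpoints linearly interpolated between the two concentrations bracketing the appropriate inhibition level. GI50 marks 50% less growth.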 Active and inactive are the calls of the source. Cut-off read from the data, not from the text of the source: active = GI50 up to about 1.1 µM and inactive = higher. Residues, ends and D or L forms follow the SMILES beside them. *: point of attachment. Boc = CC(C)(C)OC(=O)*; OBn = c1ccc(CO*)cc1

Key:
Assay in all cases: DTP human tumour cell line panel, 48 h
PC-3 = system: PC-3
SR = system: SR
NCI-H23 = system: NCI-H23
786-0 = system: 786-0
COLO 205 = system: COLO 205
SK-OV-3 = system: SK-OV-3
MCF7 = system: MCF7
OVCAR-5 = system: OVCAR-5
SF-295 = system: SF-295
LOX IMVI = system: LOX IMVI
SW-620 = system: SW-620
MDA-MB-231 = system: MDA-MB-231
T47D = system: T47D
M14 = system: M14
HT-29 = system: HT-29
DU-145 = system: DU-145
CAKI-1 = system: CAKI-1
SNB-75 = system: SNB-75
Malme-3M = system: Malme-3M

Measured: GI50

CC1=C(O)C(=O)C2=C(C1=O)[C@@H]([C@@H](C)C/C=C/C(C)(C)O)CC[C@@H]2C
inactive: PC-3 51.1 µM | SR 35.3 µM | NCI-H23 49.2 µM | 786-0 > 100 µM | COLO 205 > 100 µM | SK-OV-3 > 100 µM | MCF7 41.1 µM | OVCAR-5 > 100 µM | SF-295 44.3 µM | LOX IMVI 29.6 µM | SW-620 77.4 µM | MDA-MB-231 > 100 µM | T47D 27.2 µM | M14 61 µM | HT-29 69.3 µM | DU-145 98.6 µM | CAKI-1 37.9 µM

O=C1Nc2ccccc2/C1=N/Nc1c(F)c(F)c(F)c(F)c1F
inactive: PC-3 > 100 µM | SR 3.48 µM | NCI-H23 87.7 µM | SNB-75 91.4 µM | 786-0 22 µM | COLO 205 13.9 µM | SK-OV-3 > 100 µM | MCF7 36.6 µM | OVCAR-5 > 100 µM | SF-295 > 100 µM | LOX IMVI 31.2 µM | SW-620 43.9 µM | MDA-MB-231 > 100 µM | T47D 22 µM | M14 > 100 µM | HT-29 42.8 µM | DU-145 67 µM | CAKI-1 30.8 µM

OC1[C@H](O)CN(OCc2ccccc2)C[C@@H]1O (stereo not given in full)
inactive: PC-3 > 100 µM | SR > 100 µM | NCI-H23 > 100 µM | SNB-75 > 100 µM | 786-0 > 100 µM | COLO 205 > 100 µM | MCF7 > 100 µM | OVCAR-5 > 100 µM | SF-295 > 100 µM | LOX IMVI > 100 µM | SW-620 > 100 µM | MDA-MB-231 > 100 µM | T47D > 100 µM | M14 > 100 µM | Malme-3M > 100 µM | HT-29 > 100 µM | DU-145 > 100 µM | CAKI-1 > 100 µM

CC(=O)CC(O)(C(F)(F)Cl)C(F)(F)Cl
inactive: PC-3 > 10 µM | SR > 10 µM | NCI-H23 > 10 µM | SNB-75 > 10 µM | 786-0 > 10 µM | COLO 205 > 10 µM | SK-OV-3 > 10 µM | MCF7 > 10 µM | SF-295 > 10 µM | LOX IMVI > 10 µM | SW-620 > 10 µM | MDA-MB-231 > 10 µM | T47D > 10 µM | M14 > 10 µM | Malme-3M > 10 µM | HT-29 > 10 µM | DU-145 > 10 µM | CAKI-1 > 10 µM

O=C1NC2(CCCCC2)N=C2C(Cl)CCCC12Cl (stereo not given)
inactive: PC-3 > 100 µM | SR > 100 µM | NCI-H23 > 100 µM | SNB-75 > 100 µM | 786-0 > 100 µM | COLO 205 > 100 µM | SK-OV-3 > 100 µM | MCF7 > 100 µM | OVCAR-5 > 100 µM | SF-295 > 100 µM | LOX IMVI > 100 µM | SW-620 > 100 µM | MDA-MB-231 > 100 µM | T47D > 100 µM | M14 > 100 µM | Malme-3M > 100 µM | HT-29 > 100 µM | DU-145 > 100 µM

CC1(C)N=C(N)N=C(N)N1c1ccc(OCC(=O)Nc2cccc(S(=O)(=O)F)c2)c(Cl)c1
inactive: PC-3 1.54 µM | SR 2.85 µM | NCI-H23 4.95 µM | SNB-75 54.7 µM | 786-0 4.9 µM | COLO 205 15.9 µM | SK-OV-3 > 81.1 µM | MCF7 6.03 µM | OVCAR-5 7.91 µM | SF-295 10.2 µM | LOX IMVI 4.9 µM | SW-620 3.71 µM | MDA-MB-231 > 31.6 µM | T47D 27.2 µM | M14 13.9 µM | HT-29 5.16 µM | DU-145 > 25.1 µM | CAKI-1 35.8 µM

COc1cc(/C=N/N=C2NCCCCN2)ccc1O
inactive: PC-3 > 100 µM | SR > 100 µM | NCI-H23 > 100 µM | SNB-75 > 100 µM | 786-0 > 100 µM | COLO 205 > 100 µM | SK-OV-3 > 100 µM | MCF7 50.2 µM | OVCAR-5 > 100 µM | SF-295 61.7 µM | LOX IMVI > 100 µM | SW-620 > 100 µM | MDA-MB-231 > 100 µM | T47D 53.8 µM | M14 > 100 µM | Malme-3M > 100 µM | HT-29 80 µM | DU-145 > 100 µM

CCCCCCCCCCCCCCCCP(=O)(O)OP(=O)(O)OCC1OC(n2cnc3c(N)ncnc32)C(O)C1O (stereo not given)
inactive: PC-3 20.7 µM | SR 45.5 µM | NCI-H23 26.8 µM | SNB-75 20.5 µM | 786-0 22.8 µM | COLO 205 32.7 µM | SK-OV-3 28.6 µM | MCF7 22.6 µM | OVCAR-5 15.5 µM | LOX IMVI 27.4 µM | SW-620 29 µM | MDA-MB-231 35.1 µM | T47D 82.6 µM | M14 27.5 µM | Malme-3M 22.2 µM | HT-29 20.3 µM | DU-145 46.9 µM | CAKI-1 28.7 µM

Brc1ccc(/N=N/N2CCCC2)cc1
inactive: PC-3 31.8 µM | SR 34.6 µM | NCI-H23 45.2 µM | 786-0 > 100 µM | COLO 205 > 100 µM | SK-OV-3 > 100 µM | MCF7 65.8 µM | OVCAR-5 > 100 µM | SF-295 77.1 µM | LOX IMVI 40.4 µM | SW-620 > 100 µM | MDA-MB-231 > 100 µM | T47D 14.4 µM | M14 > 100 µM | Malme-3M > 100 µM | HT-29 > 100 µM | DU-145 49.7 µM | CAKI-1 27.7 µM

CC(C)C(NC(=O)CNC(=O)C1CCCN1C(=O)C(NC(=O)OC(C)(C)C)C(C)C)C(=O)NCC(=O)OCc1ccccc1 (stereo not given) (Boc-VPGVG-OBn; configuration not given here)
inactive: PC-3 > 100 µM | SR > 100 µM | NCI-H23 > 100 µM | 786-0 > 100 µM | COLO 205 > 100 µM | SK-OV-3 > 100 µM | MCF7 > 100 µM | OVCAR-5 > 100 µM | SF-295 > 100 µM | LOX IMVI > 100 µM | SW-620 > 100 µM | MDA-MB-231 > 100 µM | T47D > 100 µM | M14 > 100 µM | Malme-3M > 100 µM | HT-29 > 100 µM | DU-145 > 100 µM | CAKI-1 > 100 µM

COc1c2occc2cc2ccc(=O)oc12 [METHOXSALEN]
inactive: PC-3 > 100 µM | SR 90.6 µM | NCI-H23 > 100 µM | 786-0 > 100 µM | COLO 205 > 100 µM | SK-OV-3 > 100 µM | MCF7 > 100 µM | OVCAR-5 > 100 µM | SF-295 > 100 µM | LOX IMVI > 100 µM | SW-620 > 100 µM | MDA-MB-231 > 100 µM | T47D > 100 µM | M14 > 100 µM | DU-145 > 100 µM | CAKI-1 > 100 µM
